Data reported in patent US20260176320A1, “MODULATORS OF G-PROTEIN COUPLED RECEPTORS” (priority 2018, published 2026).
Read-outs that look alike come from different tables or passages of the source. Square brackets hold non-standard residues; d marks the D form. Peptide text beside a SMILES is read from it. * marks the point of attachment. X1 = O=C(CSCC(=O)*)NCCN1C(=O)c2ccccc2C1=O; Aib = CC(C)(N)C(=O)O

What was measured:
Type in all cases: cell-based
GIP-R = target: T1, GIP-R (Homo sapiens, UniProt P48546); assay: HitHunter cAMP assay (GIP-R); conditions: cAMP; for EC50: EC50 GIP-R/nM; for Emax: read-out: (Emax) GIP-R
T1 sequence (P48546 22-466): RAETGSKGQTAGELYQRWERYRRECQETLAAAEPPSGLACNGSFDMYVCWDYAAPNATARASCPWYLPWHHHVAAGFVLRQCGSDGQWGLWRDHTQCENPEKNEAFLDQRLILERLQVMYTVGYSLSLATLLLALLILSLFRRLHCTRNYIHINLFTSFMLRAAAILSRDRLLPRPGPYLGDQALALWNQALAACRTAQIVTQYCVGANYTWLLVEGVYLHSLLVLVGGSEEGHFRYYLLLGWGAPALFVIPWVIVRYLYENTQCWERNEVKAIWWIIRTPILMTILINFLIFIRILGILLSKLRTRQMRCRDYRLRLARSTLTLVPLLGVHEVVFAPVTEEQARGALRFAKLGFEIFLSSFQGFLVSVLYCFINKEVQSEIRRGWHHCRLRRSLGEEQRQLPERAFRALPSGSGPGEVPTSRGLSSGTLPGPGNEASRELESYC
Procedure, shortened: (§1)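 Cells were resuspended in HBSS plus HEPES, IBMX (625 μM) and BSA, then dispensed with antibody at 10,000 per well. Agonists followed as 22-point twofold series, 30 min at room temperature. Antibody reagent and detection steps ran 1 h and overnight in the dark before luminescence.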

GLP-1R [1] = target: T2, GLP-1R (Homo sapiens, UniProt P43220); assay: HitHunter cAMP assay (GLP-1R); conditions: cAMP; for Emax: read-out: (Emax) GLP-1R
Procedure, shortened: as §1

GLP-1R [2] = target: T2, GLP-1R; assay: PathHunter β-arrestin assay
Experimental: The effects of the chemical entities described herein on β-arrestin signaling and associated downstream processes (e.g., those delineated above) can be assessed using conventional methods, e.g., PathHunter β-arrestin Assay for determining β-arresting coupling (see Examples section). […] It has been shown that b-arrestin coupling is a key strep in receptor internalization and subsequent de-sensitization and attenuation of signaling.
5,000 cells were seeded in appropriate cell culture media per well in a low volume 384-well tissue culture plate. The assay plate was incubated with cells overnight at 37° C. and 5% CO2. The media was removed, and 5 μL of appropriate cell culture media containing 0.2% BSA was added. Agonist serial dilutions in a separate 384 well dilution plate in a 22-point series of 2× dilutions of agonist in DMSO were performed as follows. 80 μL of the highest concentration of Agonist/DMSO was added to well No. 1. 40 μL was removed from well No. 1, and added to well No. 2, followed by gentle mixing. […] This process was repeated until well No. 22. Additional serial dilutions for additional agonists were set up in a similar manner. 100 nL of each 2× agonist serial dilution was added in duplicate to the designated agonist rows of the assay plate using the Labcyte ECHO. Assay plate was incubated for 90 minutes at 37° C. and 5% CO2. A stock of Working Detection Solution in a separate 15 ml polypropylene tube was prepared by mixing 19 parts of Cell Assay Buffer, 5 parts of Substrate Reagent 1, 1 part Substrate Reagent 2. […] Plates were spun down briefly. Assay plate was incubated for 3 hour at room temperature in the dark for the immunocompetition reaction to occur. Samples were read on Tecan i-control plate reader using luminescence mode with 100 ms integration time. Data analysis was performed using GraphPad Prism.

T2 sequence (P43220 24-463): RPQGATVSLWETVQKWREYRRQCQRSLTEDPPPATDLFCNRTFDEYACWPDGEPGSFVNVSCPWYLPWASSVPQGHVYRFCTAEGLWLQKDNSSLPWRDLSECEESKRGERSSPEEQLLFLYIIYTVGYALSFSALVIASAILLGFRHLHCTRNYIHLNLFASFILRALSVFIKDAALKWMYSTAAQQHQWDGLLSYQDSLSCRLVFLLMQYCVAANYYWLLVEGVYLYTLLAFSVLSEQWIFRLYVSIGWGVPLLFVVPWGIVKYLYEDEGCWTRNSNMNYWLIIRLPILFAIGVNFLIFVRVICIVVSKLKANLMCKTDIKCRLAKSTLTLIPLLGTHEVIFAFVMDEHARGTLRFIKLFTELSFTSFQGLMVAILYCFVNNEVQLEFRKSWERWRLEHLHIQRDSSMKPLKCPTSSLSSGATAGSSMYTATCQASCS

Structure (SMILES) | EC50 (GIP-R; Table 3) [nM] | EC50 (GIP-R; Table 3A) [nM] | Emax (GIP-R; Table 3) [%] | Emax (GIP-R; Table 3A) [%] | EC50 (GLP-1R [1]; EC50 GLP-1R/nM, Table 3) [nM] | EC50 (GLP-1R [1]; EC50 GLP-1R/nM, Table 3A) [nM] | Emax (GLP-1R [1]; Table 3) [%] | Emax (GLP-1R [1]; Table 3A) [%] | EC50 (GLP-1R [2]) [nM] | EC50 (GLP-1R [1]; Table 3, read-out: EC50 GLP-1R/nM) [nM] | EC50 (GLP-1R [1]; Table 3A, read-out: EC50 GLP-1R/nM) [nM] | EC50 (GLP-1R [2]; PathHunter β-arrestin assay, read-out: β-arrestin activity EC50) [nM]
CCCCCCCCCCCCCCCC(=O)N[C@@H](CCC(=O)NCCCC[C@H](NC(=O)[C@H](CO)NC(=O)[C@@H]1CCCN1C(=O)[C@@H]1CCCN1C(=O)[C@@H]1CCCN1C(=O)[C@H](C)NC(=O)CNC(=O)[C@H](CO)NC(=O)[C@H](CO)NC(=O)[C@@H]1CCCN1C(=O)CNC(=O)CNC(=O)[C@H](C)NC(=O)[C@H](CC(C)C)NC(=O)[C@H](CC(C)C)NC(=O)[C@H](Cc1c[nH]c2ccccc12)NC(=O)[C@H](CC(N)=O)NC(=O)[C@@H](NC(=O)[C@H](Cc1ccccc1)NC(=O)[C@H](CCC(=O)O)NC(=O)C(C)(C)NC(=O)[C@H](C)NC(=O)[C@H](C)NC(=O)[C@H](CCC(N)=O)NC(=O)[C@H](CCCCN)NC(=O)[C@H](CC(=O)O)NC(=O)[C@H](CC(C)C)NC(=O)[C@H](Cc1ccc(O)cc1)NC(=O)[C@@H](NC(=O)[C@H](CO)NC(=O)[C@H](Cc1ccc(O)cc1)NC(=O)[C@H](CC(=O)O)NC(=O)[C@H](CO)NC(=O)[C@@H](NC(=O)[C@H](Cc1ccccc1)NC(=O)[C@@H](NC(=O)CNC(=O)[C@H](CCC(=O)O)NC(=O)CSCC(=O)NCCN1C(=O)CC(C)(C)C1=O)[C@@H](C)O)[C@@H](C)O)[C@@H](C)CC)C(C)C)C(N)=O)C(=O)O [Compound 104] | 1 to 10 | 1 to 10 | 43 to 47 | 43 to 47 | 1 to 10 | 1 to 10 | 104 to 106 | 104 to 106 | > 1000 |  |  | 
CC[C@H](C)[C@H](NC(=O)[C@H](CO)NC(=O)[C@H](Cc1ccc(O)cc1)NC(=O)[C@H](CC(=O)O)NC(=O)[C@H](CO)NC(=O)[C@@H](NC(=O)[C@H](Cc1ccccc1)NC(=O)[C@@H](NC(=O)CNC(=O)[C@H](CCC(=O)O)NC(=O)CSCC(=O)NCCN1C(=O)c2ccc(C(C)(C)C)cc2C1=O)[C@@H](C)O)[C@@H](C)O)C(=O)N[C@@H](Cc1ccc(O)cc1)C(=O)N[C@@H](CC(C)C)C(=O)N[C@@H](CC(=O)O)C(=O)N[C@@H](CCCCN)C(=O)N[C@@H](CCC(N)=O)C(=O)N[C@@H](C)C(=O)N[C@@H](C)C(=O)NC(C)(C)C(=O)N[C@@H](CCC(=O)O)C(=O)N[C@@H](Cc1ccccc1)C(=O)N[C@H](C(=O)N[C@@H](CC(N)=O)C(=O)N[C@@H](Cc1c[nH]c2ccccc12)C(=O)N[C@@H](CC(C)C)C(=O)N[C@@H](CC(C)C)C(=O)N[C@@H](C)C(=O)NCC(=O)NCC(=O)N1CCC[C@H]1C(=O)N[C@@H](CO)C(=O)N[C@@H](CO)C(=O)NCC(=O)N[C@@H](C)C(=O)N1CCC[C@H]1C(=O)N1CCC[C@H]1C(=O)N1CCC[C@H]1C(=O)N[C@@H](CO)C(=O)N[C@@H](CCCCN)C(N)=O)C(C)C [Compound 164] | 10 to 100 | 10 to 100 | 99 to 105 | 99 to 105 | 10 to 100 | 10 to 100 | 68 | 68 | > 1000 |  |  | 
CCCCCCCCCCCCCCCC(=O)N[C@@H](CCC(=O)NCCCC[C@H](NC(=O)[C@H](CO)NC(=O)[C@@H]1CCCN1C(=O)[C@@H]1CCCN1C(=O)[C@@H]1CCCN1C(=O)[C@H](C)NC(=O)CNC(=O)[C@H](CO)NC(=O)[C@H](CO)NC(=O)[C@@H]1CCCN1C(=O)CNC(=O)CNC(=O)[C@H](C)NC(=O)[C@H](CC(C)C)NC(=O)[C@H](CC(C)C)NC(=O)[C@H](Cc1c[nH]c2ccccc12)NC(=O)[C@H](CC(N)=O)NC(=O)[C@@H](NC(=O)[C@H](Cc1ccccc1)NC(=O)[C@H](CCC(=O)O)NC(=O)C(C)(C)NC(=O)[C@H](C)NC(=O)[C@H](C)NC(=O)[C@H](CCC(N)=O)NC(=O)[C@H](CCCCN)NC(=O)[C@H](CC(=O)O)NC(=O)[C@H](CC(C)C)NC(=O)[C@H](Cc1ccc(O)cc1)NC(=O)[C@@H](NC(=O)[C@H](CO)NC(=O)[C@H](Cc1ccc(O)cc1)NC(=O)[C@H](CC(=O)O)NC(=O)[C@H](CO)NC(=O)[C@@H](NC(=O)[C@H](Cc1ccccc1)NC(=O)[C@@H](NC(=O)CNC(=O)[C@H](CCC(=O)O)NC(=O)CC(C)(C)NC(=O)CCN1CCCCC1=O)[C@@H](C)O)[C@@H](C)O)[C@@H](C)CC)C(C)C)C(N)=O)C(=O)O [Compound 3] |  |  |  |  |  |  | 96 | 96 |  | 0.1 to 1 | 0.1 to 1 | > 1000
CC[C@H](C)[C@H](NC(=O)[C@H](CO)NC(=O)[C@H](Cc1ccc(O)cc1)NC(=O)[C@H](CC(=O)O)NC(=O)[C@H](CO)NC(=O)[C@@H](NC(=O)[C@H](Cc1ccccc1)NC(=O)[C@@H](NC(=O)CNC(=O)[C@H](CCC(=O)O)NC(=O)CSCC(=O)NCCN1C(=O)c2ccccc2C1=O)[C@@H](C)O)[C@@H](C)O)C(=O)N[C@@H](Cc1ccc(O)cc1)C(=O)N[C@@H](CC(C)C)C(=O)N[C@@H](CC(=O)O)C(=O)N[C@@H](CCC(=O)O)C(=O)N[C@@H](CCC(N)=O)C(=O)N[C@@H](C)C(=O)N[C@@H](C)C(=O)NC(C)(C)C(=O)N[C@@H](CCC(=O)O)C(=O)N[C@@H](Cc1ccccc1)C(=O)N[C@H](C(=O)N[C@@H](CC(N)=O)C(=O)N[C@@H](Cc1c[nH]c2ccccc12)C(=O)N[C@@H](CC(C)C)C(=O)N[C@@H](CC(C)C)C(=O)N[C@@H](C)C(=O)NCC(=O)NCC(=O)N1CCC[C@H]1C(=O)N[C@@H](CO)C(=O)N[C@@H](CO)C(=O)NCC(=O)N[C@@H](C)C(=O)N1CCC[C@H]1C(=O)N1CCC[C@H]1C(=O)N1CCC[C@H]1C(=O)N[C@@H](CO)C(=O)N[C@@H](CCCCN)C(N)=O)C(C)C [compound 150] (X1-EGTFTSDYSIYLDEQAA[Aib]EFVNWLLAGGPSSGAPPPSK-NH2) |  |  | 118 to 130 |  |  |  |  |  | > 1000 |  |  | 
CC[C@H](C)[C@H](NC(=O)[C@H](CO)NC(=O)[C@H](Cc1ccc(O)cc1)NC(=O)[C@H](CC(=O)O)NC(=O)[C@H](CO)NC(=O)[C@@H](NC(=O)[C@H](Cc1ccccc1)NC(=O)[C@@H](NC(=O)CNC(=O)[C@H](CCC(=O)O)NC(=O)CSCC(=O)NCCN1C(=O)c2ccccc2C1=O)[C@@H](C)O)[C@@H](C)O)C(=O)N[C@@H](Cc1ccc(O)cc1)C(=O)N[C@@H](CC(C)C)C(=O)N[C@@H](CC(=O)O)C(=O)N[C@@H](CCCCN)C(=O)N[C@@H](CCC(N)=O)C(=O)N[C@@H](C)C(=O)N[C@@H](C)C(=O)NC(C)(C)C(=O)N[C@@H](CCC(=O)O)C(=O)N[C@@H](Cc1ccccc1)C(=O)N[C@H](C(=O)N[C@@H](CCC(=O)O)C(=O)N[C@@H](Cc1c[nH]c2ccccc12)C(=O)N[C@@H](CC(C)C)C(=O)N[C@@H](CC(C)C)C(=O)N[C@@H](C)C(=O)NCC(=O)NCC(=O)N1CCC[C@H]1C(=O)N[C@@H](CO)C(=O)N[C@@H](CO)C(=O)NCC(=O)N[C@@H](C)C(=O)N1CCC[C@H]1C(=O)N1CCC[C@H]1C(=O)N1CCC[C@H]1C(=O)N[C@@H](CO)C(=O)N[C@@H](CCCCN)C(N)=O)C(C)C [compound 149] (X1-EGTFTSDYSIYLDKQAA[Aib]EFVEWLLAGGPSSGAPPPSK-NH2) |  |  |  |  |  |  |  |  | > 1000 |  |  | 
